Laboratory results taken from ChEMBL document CHEMBL1150730, “Secondary metabolites from Fusarium. Two new modified trichothecenes from Fusarium sporotrichioides MC-72083” (J Nat Prod, 1987).

Test: Toxicity in chick embryo measured per egg after 4 days
Parameters: species or system Gallus gallus
Details: chicken, 96 h

SMILES | LD50 [µg]
CC1=C[C@@H]2OC[C@]3(O)C(=O)CC[C@]3(C)[C@@]2(C)C[C@@H]1O | > 10
CC1=C[C@@H]2OC[C@]3(O)C(=O)CC[C@]3(C)[C@@]2(C)C[C@H]1O | > 10
